Several values for one entry are separate records, joined by “and”; a condition that tells them apart may be missing. Identical values can stand only once.
Test system: collagen-induced arthritis in Lewis rats
Assay: Collagen-induced arthritis (CIA) model in rats: body weight, paw volume, clinical scores, clinical observations; for Detailed Clinical Scores, left forelimb: key of the grades not given here; for Detailed Clinical Scores, left hind limb: key of the grades not given here; for Detailed Clinical Scores, right forelimb: key of the grades not given here; for Detailed Clinical Scores, right hind limb: key of the grades not given here; for Detailed Clinical Scores, score: key of the grades not given here; for Overall clinical score: key of the grades not given here
Settings: for Animal paw volume / Animal body weight percent change: Group 3 (CIA + Dexamethasone); for Animal paw volume: individual animals 1-8; for Animal paw volume percent change (%): individual animals, CIA + reference compound (Groups 3, 4); for Average animal body weight percent change: CIA + compound; for Detailed Clinical Scores, left forelimb / Detailed Clinical Scores, left hind limb / Detailed Clinical Scores, right forelimb / Detailed Clinical Scores, right hind limb / Detailed Clinical Scores, score: per animal ID; for Overall clinical score: individual CIA rats
[1] = CIA rats, daily P.O. for 21 days

## C[C@@H]1C[C@H]2[C@@H]3CCC4=CC(=O)C=C[C@]4(C)[C@@]3(F)[C@@H](O)C[C@]2(C)[C@@]1(O)C(=O)CO [dexamethasone]
CIA rats, day 21 vs day 0, daily P.O. for 21 days
  animals that gained weight by the end of the study (of 8): 4/8
[1]
  diarrhea over the 21-day period: did not have diarrhea
  increase in body weight, day 21 compared to day 0: 1.3%
Day 0, L paw
  Animal paw volume: 1.35 mL and 1.31 mL and 1.39 mL and 1.33 mL and 1.30 mL (2×) and 1.34 mL and 1.36 mL
  Animal paw volume percent change (%): 0.00%
Day 0, R paw
  Animal paw volume: 1.34 mL and 1.30 mL (2×) and 1.38 mL and 1.35 mL and 1.29 mL and 1.36 mL and 1.37 mL
  Animal paw volume percent change (%): 0.00%
Day 0
  Average animal body weight percent change: 0.00%
  Overall clinical score: 0
Day 0, CIA
  Detailed Clinical Scores, left forelimb: 0
  Detailed Clinical Scores, left hind limb: 0
  Detailed Clinical Scores, right forelimb: 0
  Detailed Clinical Scores, right hind limb: 0
  Detailed Clinical Scores, score: 0
Day 1
  Average animal body weight percent change: −2.80%
Day 2
  Average animal body weight percent change: −3.22%
Day 3
  Average animal body weight percent change: −4.37%
Day 4
  Average animal body weight percent change: −4.95%
Day 5
  Average animal body weight percent change: −4.95%
Day 6, L paw
  Animal paw volume: 1.31 mL and 1.29 mL (3×) and 1.34 mL and 1.28 mL
  Animal paw volume percent change (%): −2.97% and −1.53% and −3.61% and −3.02% and −3.09% and −3.08% and −4.12% and −5.51%
Day 6, R paw
  Animal paw volume: 1.30 mL (3×) and 1.28 mL (2×) and 1.34 mL and 1.27 mL
  Animal paw volume percent change (%): −3.00% and −1.16% and 2.91% and −1.56% and 12.70% and −5.90% and −5.13%
Day 6
  Average animal body weight percent change: −4.41%
  Overall clinical score: 0
Day 6, CIA
  Detailed Clinical Scores, left forelimb: 0
  Detailed Clinical Scores, left hind limb: 0
  Detailed Clinical Scores, right forelimb: 0
  Detailed Clinical Scores, right hind limb: 0
  Detailed Clinical Scores, score: 0
Day 7
  Average animal body weight percent change: −3.35%
Day 8
  Average animal body weight percent change: −3.90%
Day 9
  Average animal body weight percent change: −1.84%
Day 10
  Average animal body weight percent change: −2.30%
Day 11
  Average animal body weight percent change: −1.24%
Day 12, L paw
  Animal paw volume: 1.37 mL and 1.28 mL (2×) and 1.30 mL and 1.29 mL
  Animal paw volume percent change (%): −10.41% and −7.66% and −1.44% and −3.40% and −1.54% and −6.54% and −3.00% and −5.51%
Day 12, R paw
  Animal paw volume: 1.37 mL and 1.27 mL and 1.29 mL
  Animal paw volume percent change (%): −6.74% and −3.09% and −0.73% and −7.43% and −1.56% and −9.27% and −7.01% and −5.86%
Day 12
  Average animal body weight percent change: −1.18%
  Overall clinical score: 0
Day 12, CIA
  Detailed Clinical Scores, left forelimb: 0
  Detailed Clinical Scores, left hind limb: 0
  Detailed Clinical Scores, right forelimb: 0
  Detailed Clinical Scores, right hind limb: 0
  Detailed Clinical Scores, score: 0
Day 13, L paw
  Animal paw volume: 1.40 mL and 1.29 mL (2×) and 1.30 mL and 1.31 mL
  Animal paw volume percent change (%): −8.92% and −5.36% and 0.72% and −3.02% and 0.00% and −4.23% and −2.25% and −5.51%
Day 13, R paw
  Animal paw volume: 1.27 mL and 1.38 mL and 1.28 mL and 1.31 mL and 1.29 mL
  Animal paw volume percent change (%): −5.99% and −2.32% and 0.36% and −7.43% and −0.78% and −6.95% and −3.69% and −5.86%
Day 13
  Average animal body weight percent change: −0.91%
  Overall clinical score: 0
Day 13, CIA
  Detailed Clinical Scores, left forelimb: 0
  Detailed Clinical Scores, left hind limb: 0
  Detailed Clinical Scores, right forelimb: 0
  Detailed Clinical Scores, right hind limb: 0
  Detailed Clinical Scores, score: 0
Day 14, L paw
  Animal paw volume: 1.39 mL and 1.27 mL and 1.28 mL and 1.29 mL
  Animal paw volume percent change (%): −8.18% and −5.36% and 0.00% and −4.53% and −1.54% and −5.00% and −3.75% and −8.46%
Day 14, R paw
  Animal paw volume: 1.38 mL and 1.29 mL
  Animal paw volume percent change (%): −5.62% and −2.70% and 0.00% and −8.92% and −2.33% and −7.72% and −5.17% and −8.06%
Day 14
  Average animal body weight percent change: −1.24%
  Overall clinical score: 0
Day 14, CIA
  Detailed Clinical Scores, left forelimb: 0
  Detailed Clinical Scores, left hind limb: 0
  Detailed Clinical Scores, right forelimb: 0
  Detailed Clinical Scores, right hind limb: 0
  Detailed Clinical Scores, score: 0
Day 15, L paw
  Animal paw volume: 1.36 mL and 1.28 mL and 1.33 mL and 1.27 mL
  Animal paw volume percent change (%): −8.92% and −7.28% and −2.17%
Day 15, R paw
  Animal paw volume: 1.36 mL and 1.27 mL (2×) and 1.32 mL
  Animal paw volume percent change (%): −6.74% and −4.25% and −1.45%
Day 15
  Average animal body weight percent change: 0.43%
  Overall clinical score: 0
Day 15, CIA
  Detailed Clinical Scores, left forelimb: 0
  Detailed Clinical Scores, left hind limb: 0
  Detailed Clinical Scores, right forelimb: 0
  Detailed Clinical Scores, right hind limb: 0
  Detailed Clinical Scores, score: 0
Day 16
  Average animal body weight percent change: −0.57%
Day 17
  Average animal body weight percent change: 0.62%
Day 18, L paw
  Animal paw volume: 1.28 mL and 1.45 mL and 1.31 mL and 1.29 mL and 1.34 mL and 1.30 mL
  Animal paw volume percent change (%): −5.20% and −6.51% and 4.33%
Day 18, R paw
  Animal paw volume: 1.28 mL and 1.44 mL and 1.31 mL and 1.29 mL (2×) and 1.34 mL
  Animal paw volume percent change (%): −4.49% and −4.63% and 4.36%
Day 18
  Average animal body weight percent change: 1.02%
  Overall clinical score: 0
Day 18, CIA rats
  Detailed Clinical Scores, left forelimb: 0
  Detailed Clinical Scores, left hind limb: 0
  Detailed Clinical Scores, right forelimb: 0
  Detailed Clinical Scores, right hind limb: 0
  Detailed Clinical Scores, score: 0
Day 19, L paw
  Animal paw volume: 1.28 mL (2×) and 1.44 mL and 1.30 mL (2×) and 1.33 mL
  Animal paw volume percent change (%): −5.20% and −6.90% and 3.61%
Day 19, R paw
  Animal paw volume: 1.27 mL (2×) and 1.44 mL and 1.31 mL and 1.32 mL and 1.30 mL
  Animal paw volume percent change (%): −5.24% and −6.18%
Day 19
  Average animal body weight percent change: 1.53%
  Overall clinical score: 0
Day 19, CIA rats
  Detailed Clinical Scores, left forelimb: 0
  Detailed Clinical Scores, left hind limb: 0
  Detailed Clinical Scores, right forelimb: 0
  Detailed Clinical Scores, right hind limb: 0
  Detailed Clinical Scores, score: 0
Day 20
  Average animal body weight percent change: 1.66%
Day 21, L paw
  Animal paw volume: 1.43 mL and 1.31 mL (2×) and 1.30 mL (2×)
  Animal paw volume percent change (%): −6.32% and −6.90%
Day 21, R paw
  Animal paw volume: 1.43 mL and 1.31 mL and 1.30 mL (2×) and 1.32 mL
  Animal paw volume percent change (%): −5.99% and −6.18%
Day 21
  Average animal body weight percent change: 1.30%
  Overall clinical score: 0
Day 21, CIA rats
  Detailed Clinical Scores, left forelimb: 0
  Detailed Clinical Scores, left hind limb: 0
  Detailed Clinical Scores, right forelimb: 0
  Detailed Clinical Scores, right hind limb: 0
  Detailed Clinical Scores, score: 0
Day 0, individual animals
  Animal body weight percent change: 0.00%
Day 1, individual animals
  Animal body weight percent change: 0.66% and −7.41% and −1.72% and −2.37% and −1.20% and −6.21%
Day 2, individual animals
  Animal body weight percent change: −0.66% and −6.79% and 1.15% and −1.78% and −3.01% and −8.07%
Day 3, individual animals
  Animal body weight percent change: −1.99% and −11.11% and 0.57% and −2.96% and −2.41% and −9.94%
Day 4, individual animals
  Animal body weight percent change: −2.65% and −9.26% and −2.30% and −5.33% and −6.02%
Day 5, individual animals
  Animal body weight percent change: −2.65% and −8.02% and −5.17% and −2.96% and −4.82%
Day 6, individual animals
  Animal body weight percent change: −2.65% and −6.17% and −1.72% and −4.73% and −6.63%
Day 7, individual animals
  Animal body weight percent change: −0.66% and −5.56% and 2.30% and −4.14% and −3.61%
Day 15, individual animals
  Animal body weight percent change: 9.93% and −3.09% and 2.30% and 0.59% and −1.20% and −6.83% and 2.33% and −0.63%
Day 16, individual animals
  Animal body weight percent change: 3.97% and −5.56% and 7.47% and −0.59% and −4.22% and −8.70% and 1.16% and 1.88%
Day 17, individual animals
  Animal body weight percent change: 5.96% and −4.32% and 8.05% and −2.37% and 0.60% and −6.83% and −1.16% and 5.00%
Day 18, individual animals
  Animal body weight percent change: 3.97% and −6.17% and 8.62% and −2.37% and 0.00% and −5.59% and 4.07% and 5.63%
Day 19, individual animals
  Animal body weight percent change: 7.28% and −9.26% and 10.34% and 0.59% and 1.20% and −5.59% and 5.81% and 1.88%
Day 20, individual animals
  Animal body weight percent change: 7.95% and −3.70% and 5.75% and 2.37% and 0.60% and −4.35% and 4.65% and 0.00%
Day 21, individual animals
  Animal body weight percent change: 8.61% and −3.70% and 7.47% and 0.00% and −3.01% and −5.59% and 2.91% and 3.75%

Source: patent publication US20260000642A1 (Tay Therapeutics Limited, priority 2022, published 2026)
